Measured values from patent US20260097083A1, “METHOD FOR PRODUCING PANCREATIC ENDODERM CELLS” (Kyoto University, priority 2022, published 2026).

System: pancreatic endoderm cells derived from human iPS cells
Experiment: Expansion culture of pancreatic endoderm cells with Y-27632
Type: cell-based
Protocol: FIG. 4-A A schematic diagram illustrating expansion culture of pancreatic endoderm cells with Y-27632 (50 μM). NKX6.1-positive pancreatic endoderm cells were seeded on a plate and cultured in a culture medium containing Y-27632 (50 μM) for one week. After the elapse of one week, the cells were reseeded, and passage and expansion culture were repeated. PDX1^+/NKX6.1^+ pancreatic endoderm cells were produced from iPS cells (585A1 line) or ES cells (KhES-3 line) on a 6-well plate using the method by Toyoda et al. (Toyoda T, et al. Stem Cell Reports 2017). Briefly, the undifferentiated cells above were seeded at 1×10^6/well on a 6-well plate coated with iMatrix-511 silk. The cells were cultured in RPMI to which an S1 culture medium (1×B-27 Supplement, 100 U/ml penicillin/streptomycin, 100 ng/ml activin A, and CHIR99021 (Day 1: 3 μM, Days 2 and 3: 1 μM, and Day 4: 0 μM)) had been added for 4 days, in an S2 culture medium (improved MEM to which 0.5×B-27 Supplement, 100 U/ml penicillin/streptomycin, and 50 ng/ml KGF/FGF7 had been added) for 5 days, and in an S3 culture medium (improved MEM to which 0.5×B-27 Supplement, 100 U/ml penicillin/streptomycin, 50 ng/ml KGF/FGF7, 0.2 μM LDN-193189, 0.1 μM SANT-1, and 10 nM TTNPB had been added) for 2 days. The cells were detached from the 6-well plate using trypsin, and were reseeded on a 6-well plate coated with iMatrix-511 silk at 1.5×10^6/well using the S3 culture medium again. On the next day, the culture medium was changed to an S4 culture medium (improved MEM to which 0.5×B-27 Supplement, 100 U/ml penicillin/streptomycin, 100 ng/ml KGF/FGF7, 50 ng/ml EGF, 10 mM nicotinamide, and 50 μM Y-27632 had been added), and the cells were cultured for 4 days. (1) After the cells produced in clause 1 above were washed with PBS(−), 1 ml of 0.25% trypsin-EDTA was added thereto, and the cells were incubated at 37° C. and 5% CO2 for 5 minutes. (2) The adherent cells were detached through pipetting and were added to a 50-ml centrifuge tube. (3) 4 ml of DMEM (Dulbecco's Modified Eagle Medium)/10% FBS/PS (penicillin-streptomycin) was added to the centrifuge tube. (4) The resulting mixture was centrifuged at 400 G for 3 minutes, and the supernatant was removed. (5) The cells were suspended in improved MEM (containing 10 μM Y-27632, 0.5×B-27 Supplement, and 100 U/ml penicillin/streptomycin), and were counted. (6) When the cells were seeded on a 6-well plate, an amount of the suspension necessary to provide 1×10^6 cells/well was collected and was centrifuged at 400 G for 3 minutes (2×10^5 cells/well for a 24-well plate). (7) After the supernatant was removed, the cells were re-suspended in improved MEM (containing 100 ng/ml KGF, 50 ng/ml EGF, 10 mM nicotinamide, 50 μM Y-27632, 0.5×B-27 Supplement, and 100 U/ml penicillin/streptomycin), the suspension was adjusted to correspond to 2 ml/well, and then the cells were seeded. A 6-well plate to which the cells were to be seeded had been coated in advance by adding a solution formed by mixing 10 μl of iMatrix-511 silk and 1.5 ml of PBS(−) to each well 1 hour before seeding, and incubating the plate at 37° C. and 5% CO2 for 1 hour. (8) On the next day (Day 1), the cells were washed with improved MEM, and then the culture medium was changed to improved MEM (5 ml/well) containing 100 ng/ml KGF, 50 ng/ml EGF, 10 mM nicotinamide, 50 μM Y-27632, 0.5×B-27 Supplement, and 100 U/ml penicillin/streptomycin. (9) The cells were washed with improved MEM 3 days after that (on Day 4), and then the culture medium was changed to the same culture medium as that in the step (7) (5 ml/well). (10) The steps (1) to (7) above were conducted 3 days after that (on Day 7), and the next passage (expansion culture) was conducted. Expansion culture and passage culture were repeated by repeating the steps (8), (9), and (10) from the next day. One round of the passage (expansion culture) corresponded to 7 days (operations above). FIGS. 4-A show the outline of this procedure. […]

[1] = 50 μM, flow cytometry, FIG. 4-E
[2] = 50 μM, immunostaining after expansion culture, FIG. 4-D

With `C[C@@H](N)[C@H]1CC[C@H](C(=O)Nc2ccncc2)CC1` [Y-27632] the “proliferative capacity of the pancreatic endoderm cells (Ki67-positive ratio)” value (50 μM, during expansion culture, FIG. 4-F) was “maintained”, the Ki67-positive ratio [1] was “kept” and the “ratio of the pancreatic endoderm cells” value [1] was “kept”. The “expression of Ki67” value [2] was “maintained”, the “expression of PDX1 and NKX6.1” value [2] was “maintained” and the “total number of cells increased by a factor of” value (Y-27632 50 μM, 60 days, FIG. 4-B) was ≥ 1×10^5. For the same compound, the “number of PDX1+/NKX6.1+ pancreatic endoderm cells increased by a factor of” value (Y-27632 50 μM, 60 days, FIG. 4-C) was ≥ 1×10^5 and the “NKX6.1-positive ratio on repeated expansion culture” value (culture medium for expansion culture with Y-27632) was “tended to gradually decrease”.
